Patent publication US7279548B2, “Identification and isolation of novel polypeptides having WW domains and methods of using same” (Cytogen Corporation, priority 1996, dated 2007)
No end group written: not given here. *: point of attachment. Biotin = O=C1N[C@H]2[C@H](CS[C@H]2CCCCC(=O)*)N1

Tests used:
Assay type in all cases: binding, human
[1] = test system: WW domains of WWP1 expressed as GST fusion proteins; assay: ELISA based cross affinity mapping, WW domains of WWP1; settings: biotinylated peptide-streptavidin/alkaline phosphatase complex; GST fusion proteins; ELISA
Protocol: (§1) The 16 day mouse embryo cDNA expression library was diluted 1:1000 in SM solution (100 mM NaCl, 8 mM MgSOv4, 50 mM Tris HCl pH 7.5, 0.01% gelatin). To a sterile test tube, 2 μl of diluted mouse embryo library, 100 μl of 10 mM CaCl2, 100 μl of 10 mM MgCl2 and 100 μl of BL21(DE3)pLysE bacterial cells (grown overnight) were added and incubated for 30 minutes at 37° C. The contents of the tube were mixed with 3 ml of 0.6% top agarose, containing […] chloramphenicol, and poured onto a 2xYT plate (90 mm diameter). For a large primary screen, 10–20 plates were prepared with 3×10^4 pfu per plate. After 6 hours incubation at 37° C., a nitrocellulose filter soaked in 10 mM isopropyl-β-D-thiogalactopyranoside (IPTG) was overlaid on each plate and incubated 3–6 hours at 37° C. Before the filters were removed from the plates, they were marked asymmetrically with India ink in a 18 gauge syringe needle. The plates were stored at 4° C. until ready for the secondary screen. The filters were washed with PBS (137 mM NaCl, 2.7 mM KCl, 4.3 mM Na2HPO4, 1.4 mM KH2PO4)-0.05% Triton X-100 three times at room temperature, 15 minutes each wash, and then placed in a plastic bag containing non-specific blocking solution (PBS-2% BSA) for one hour. In the meantime, 1 ml of 1 mM biotinylated peptide in PBS-0.1% Tween 20 was added to 20 ml of 1 mg/ml streptavidin-alkaline phosphatase (SA-AP) in PBS-0.1% Tween 20 and incubated at 4° C. for 30 minutes. […] Excess biotin-binding sites would then be blocked by addition of 500 pmol biotin. […] Ten μl of 0.1 mM biotin would then be added, and the solution incubated for an additional 15 min.
(§2) To determine the ligand preferences of the novel WW omain-containing clones described in Sections 6.1 and 6.1.1, as well as addressing the issue of whether peptides containing PPPPY (SEQ ID NO:3)-like motifs derived from a variety of proteins could also serve as recognition units and bind to these clones, a cross affinity mapping experiment was performed (FIGS. 15A–D). The peptides shown in FIGS. 15A–D were synthesized, biotinylated, complexed with streptavidin-alkaline phosphatase, and tested in an ELISA based assay for their ability to bind to the twelve individual novel WW domains of WWP1, WWP2, WWP3 and WWP4 which were expressed as GST fusion proteins. The ELISA based cross-affinity experiments were performed essentially as described by Sparks et al. (1996, Proc. Natl. Acad. Sci. 93:1540–1544) with the following modifications. Briefly, microtiter wells were coated with 1–5 μg of fusion protein in 100 mM NaHCO3, blocked with SuperBlock TBS (Pierce) and washed four times with PBS, 0.05% Tween 20. Specific peptide-streptavidin/alkaline phosphatase complexes were added as above and unbound complexes washed five times with PBS, 0.05% Tween 20. Following addition of PNP substrate (p-nitrophenyl phosphate, Kirkegard & Perry Labs), peptide binding was quantitated after 30 min. at O.D. 405 nm. Relative binding measurements from three independent determinations were assigned to a scale as follows: O.D. units 0–0.5=(−), 0.5–1.0=(+), 1.0–2.0=(++), 2.0–3.0=(+++), >3.0=(++++). Peptide binding to human Fyn and Lyn SH3 and SH2 domains was assessed by a filter binding assay (see Section 6.1 and Sparks et al., 1996, Proc. Natl. Acad. Sci 93:1540–1544). Peptide sequences used in cross-affinity experiments correspond to segments of the following genes: RasGap (Database accession # P20936), AP-2 (P05549), p53BP-2 (U09582), IL-6Rα (P22272), voltage-gated chloride channel CLCN5 (X91906), IL-2Rγ (D111086), RSV (D10652), HTLV-1 (D13784), β-dystroglycan (L19711), Formin (X53599), amiloride-sensitive epithelial Na^+ channel ENaCα (P37089), ENaCβ (X87159) and ENaCγ (X87160), muscarinic acetylcholine receptor M4 AChR (P08173), and c-Abl (P00522). Src and Crk SH3 binding peptide sequences were derived from a phage display random peptide library screen (Section 6.1 and Sparks et al., 1996, Proc. Natl. Acad. Sci. 93:1540–1544).

[2] = test system: WW domains of WWP2 expressed as GST fusion proteins; assay: ELISA based cross affinity mapping, WW domains of WWP2; settings: biotinylated peptide-streptavidin/alkaline phosphatase complex; GST fusion proteins; ELISA
Protocol: as §1, §2

[3] = test system: WW domains of WWP4 expressed as GST fusion proteins; assay: ELISA based cross affinity mapping, WW domains of WWP4; settings: biotinylated peptide-streptavidin/alkaline phosphatase complex; GST fusion proteins; ELISA
Protocol: as §1, §2

[4] = test system: twelve individual novel WW domains of WWP1, WWP2, WWP3 and WWP4; assay: ELISA based cross affinity mapping, whole panel of novel WW domains; settings: biotinylated peptide-streptavidin/alkaline phosphatase complex, GST fusion proteins
Protocol: as §1, §2

Row | Substance | binding to WW domains of WWP1 [1] | binding to WW domains of WWP2 [2] | binding to WW domains of WWP4 [3] | binding to the novel WW domains (WWP1, WWP2, WWP3, WWP4 panel) [4]
1 | Biotin-SGSGYVQPPPPPYPGPM [WBP-2A] | specifically bind | specifically bind | specifically bind | bound to several individual WW domains to varying degrees
2 | Biotin-SGSGPGTPYPPPPEFY [WBP-2B] | none of the WW domains of these proteins specifically bind | none of the WW domains of these proteins specifically bind | none of the WW domains of these proteins specifically bind | no binding activity
3 | Biotin-SGSGPGTPPPPYTVGPGY [WBP-1] | specifically bind | specifically bind | specifically bind | bound to several individual WW domains to varying degrees
